# In PubChem BioAssay AID1195 (EPA DSSTox, 2008):
# System: human maximum recommended daily dose, FDA database
# Assay: DSSTox (FDAMDD) FDA Maximum (Recommended) Daily Dose Database
# Conditions: stronger effect = lower value
# Method in brief: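 MRDD values come from clinical trials with daily oral dosing, usually for 3–12 months, for the average adult, in mg/day converted to mg/kg-bw/day assuming 60 kg. Antineoplastic mg/m2 doses are divided by 37. Activity score maps log10(1/MRDD mmol) onto 1–100.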
# [1] = TherapeuticCategory: anxiolytic
# [2] = TherapeuticCategory: antibacterial
# [3] = TherapeuticCategory: antipsychotic
# [4] = TherapeuticCategory: anticholinergic
# [5] = TherapeuticCategory: antihistaminic, antipruritic
# [6] = TherapeuticCategory: diagnostic aid
# [7] = TherapeuticCategory: antidiabetic
# [8] = TherapeuticCategory: glucocorticoid
# [9] = TherapeuticCategory: sedative, hypnotic
# [10] = TherapeuticCategory: antidepressant
# [11] = TherapeuticCategory: antineoplastic
# [12] = TherapeuticCategory: narcotic analgesic, antitussive
structure (smiles),measurement,setting,value
O=C1CN=C(c2ccccc2)c2cc(Cl)ccc2N1CC1CC1,maximum recommended daily dose (mmol/kg-bw/day),[1],0.00308
NC[C@@H]1CC[C@@H](N)[C@@H](O[C@H]2[C@H](O)[C@@H](O[C@H]3O[C@H](CO)[C@@H](O)[C@H](N)[C@H]3O)[C@H](N)C[C@@H]2N)O1,maximum recommended daily dose (mmol/kg-bw/day),[2],0.00664
O=C(OC1C(OC(=O)c2cccnc2)C(OC(=O)c2cccnc2)C(OC(=O)c2cccnc2)C(OC(=O)c2cccnc2)C1OC(=O)c1cccnc1)c1cccnc1 (stereo not drawn),maximum recommended daily dose (mmol/kg-bw/day),TherapeuticCategory: vasodilator,0.0823
C[N+](C)(C)CC(=O)[O-],maximum recommended daily dose (mmol/kg-bw/day),TherapeuticCategory: hepatoprotectant,0.0711
CN(C)CCCN1c2ccccc2Sc2ccccc21,maximum recommended daily dose (mmol/kg-bw/day),[3],0.0587
Cn1c(=O)c2c(ncn2C)n(C)c1=O,maximum recommended daily dose (mmol/kg-bw/day),TherapeuticCategory: CNS stimulant,0.0515
CCCC(=O)c1ccc2c(c1)N(CCCN1CCN(C)CC1)c1ccccc1S2,maximum recommended daily dose (mmol/kg-bw/day),[3],0.00408
CO[C@@]1(NC(=O)C(C(=O)O)c2ccc(O)cc2)C(=O)N2C(C(=O)O)=C(CSc3nnnn3C)CO[C@@H]21 (stereo partly drawn),maximum recommended daily dose (mmol/kg-bw/day),[2],0.128
CCCC(C)(COC(N)=O)COC(N)=O,maximum recommended daily dose (mmol/kg-bw/day),[1],0.183
CCN(CC)CC#CCOC(=O)C(O)(c1ccccc1)C1CCCCC1 (stereo not drawn),maximum recommended daily dose (mmol/kg-bw/day),[4],0.000932
CN1CCC(=C2c3ccccc3C=Cc3ccccc32)CC1,maximum recommended daily dose (mmol/kg-bw/day),[5],0.00174
O=C(O)CC(O)(CC(=O)O)C(=O)O,maximum recommended daily dose (mmol/kg-bw/day),TherapeuticCategory: bactericide,0.52
CC(=O)O[C@H]1C[C@H](O[C@H]2[C@@H](O)C[C@H](O[C@H]3[C@@H](O)C[C@H](OC4CC[C@@]5(C)C(CC[C@@H]6[C@@H]5CC[C@]5(C)[C@@H](C7=CC(=O)OC7)[C@@H](O)C[C@]65O)C4)O[C@@H]3C)O[C@@H]2C)O[C@H](C)[C@H]1O[C@@H]1O[C@H](CO)[C@@H](O)[C@H](O)[C@H]1O (stereo partly drawn),maximum recommended daily dose (mmol/kg-bw/day),TherapeuticCategory: cardiotonic,3.38e-05
CCOC(=O)CCCCCCCCC(C)c1ccccc1I (stereo not drawn),maximum recommended daily dose (mmol/kg-bw/day),[6],0.3
Cc1ccc(S(=O)(=O)NC(=O)NC2CCCCC2)cc1N,maximum recommended daily dose (mmol/kg-bw/day),[7],0.0107
CCCCC(=O)O[C@]1(C(=O)CO)[C@@H](C)C[C@H]2[C@@H]3CCC4=CC(=O)C=C[C@]4(C)[C@@]3(F)[C@@H](O)C[C@@]21C,maximum recommended daily dose (mmol/kg-bw/day),[8],0.000315
OC1(c2ccc(Cl)cc2)c2ccccc2C2=NCCN21 (stereo not drawn),maximum recommended daily dose (mmol/kg-bw/day),TherapeuticCategory: anorexic,0.000117
O=C(O)Cc1ccccc1Nc1c(Cl)cccc1Cl,maximum recommended daily dose (mmol/kg-bw/day),TherapeuticCategory: anti inflammatory,0.0127
O=C1C(=O)c2ccccc2C(O)=C1C1CCC(c2ccc(Cl)cc2)CC1 (stereo not drawn),maximum recommended daily dose (mmol/kg-bw/day),"TherapeuticCategory: antiprotozoal, antimalarial, antifungal",0.102
CC1CCCC(C)N1NC(=O)c1ccc(Cl)c(S(N)(=O)=O)c1 (stereo not drawn),maximum recommended daily dose (mmol/kg-bw/day),"TherapeuticCategory: antihypertensive, diuretic",0.00289
C[N+](C)(C)CCOC(N)=O,maximum recommended daily dose (mmol/kg-bw/day),"TherapeuticCategory: cholinergic, miotic",0.000365
CCCCc1ccc(C(=O)O)nc1,maximum recommended daily dose (mmol/kg-bw/day),TherapeuticCategory: none,0.0418
CCC1(c2ccccc2)CCC(=O)NC1=O (stereo not drawn),maximum recommended daily dose (mmol/kg-bw/day),[9],0.0383
COCC(=O)O[C@]1(CCN(C)CCCc2nc3ccccc3[nH]2)CCc2cc(F)ccc2[C@@H]1C(C)C,maximum recommended daily dose (mmol/kg-bw/day),"TherapeuticCategory: antihypertensive, Ca channel blocker",0.00337
COc1ccc(C(CN(C)C)C2(O)CCCCC2)cc1 (stereo not drawn),maximum recommended daily dose (mmol/kg-bw/day),[10],0.0225
CC(Oc1c(Cl)cccc1Cl)C1=NCCN1 (stereo not drawn),maximum recommended daily dose (mmol/kg-bw/day),TherapeuticCategory: antihypertensive,0.000154
COc1cc(C(=O)NS(=O)(=O)c2ccccc2C)ccc1Cc1cn(C)c2ccc(NC(=O)OC3CCCC3)cc12,maximum recommended daily dose (mmol/kg-bw/day),TherapeuticCategory: antiasthmatic,0.00116
COc1c(C)c2c(c(O)c1C/C=C(\C)CCC(=O)OCCN1CCOCC1)C(=O)OC2,maximum recommended daily dose (mmol/kg-bw/day),[11],0.277
Clc1ccc2c(c1)C(c1ccccc1)=NCc1nncn1-2,maximum recommended daily dose (mmol/kg-bw/day),[9],0.000113
CCOC(=O)c1cncn1C(C)c1ccccc1 (stereo not drawn),maximum recommended daily dose (mmol/kg-bw/day),[4],0.00246
O=C1C(O)N=C(c2ccccc2F)c2cc(Cl)ccc2N1CCO (stereo not drawn),maximum recommended daily dose (mmol/kg-bw/day),[9],0.000955
O=C(CCCN1CCC(n2c(=S)[nH]c3ccccc32)CC1)c1ccc(F)cc1,maximum recommended daily dose (mmol/kg-bw/day),[3],0.000503
CO[C@@]1(NC(=O)CSCC#N)C(=O)N2C(C(=O)O)=C(CSc3nnnn3C)CS[C@@H]21,maximum recommended daily dose (mmol/kg-bw/day),[2],0.212
COc1ccc2c3c1O[C@H]1[C@@H](O)C=C[C@H]4[C@@H](C2)N(C)CC[C@@]341,maximum recommended daily dose (mmol/kg-bw/day),[12],0.02
CCN(CC)CCNc1ccc(CO)c2sc3ccccc3c(=O)c12,maximum recommended daily dose (mmol/kg-bw/day),TherapeuticCategory: antihelmintic,0.0281
CC(C)(CO)[C@@H](O)C(=O)NCCC(=O)O,maximum recommended daily dose (mmol/kg-bw/day),TherapeuticCategory: vitamin,0.000534
CC(=O)N(CC(C)C(=O)O)c1c(I)cc(I)c(N)c1I (stereo not drawn),maximum recommended daily dose (mmol/kg-bw/day),[6],0.122
O=P(O)(O)OC(CO)CO,maximum recommended daily dose (mmol/kg-bw/day),TherapeuticCategory: none,0.388
CCCC(=O)O[C@]1(C(=O)COC(=O)CC)[C@@H](C)C[C@H]2[C@@H]3CCC4=CC(=O)C=C[C@]4(C)[C@@]3(F)[C@@H](O)C[C@@]21C,maximum recommended daily dose (mmol/kg-bw/day),[8],0.000289
CC(=O)N(c1onc(C)c1C)S(=O)(=O)c1ccc(N)cc1,maximum recommended daily dose (mmol/kg-bw/day),[2],0.216
NS(=O)(=O)c1cc2c(cc1Cl)NC(C(Cl)Cl)NS2(=O)=O (stereo not drawn),maximum recommended daily dose (mmol/kg-bw/day),"TherapeuticCategory: diuretic, antihypertensive",0.000175
CCC(=O)OCC(=O)[C@@]1(OC(=O)CC)[C@H](C)C[C@H]2[C@@H]3CCC4=CC(=O)C=C[C@]4(C)[C@@]3(F)[C@@H](O)C[C@@]21C,maximum recommended daily dose (mmol/kg-bw/day),"TherapeuticCategory: glucocorticoid, anti inflammatory",0.000297
CC(=O)Nc1ccccc1,maximum recommended daily dose (mmol/kg-bw/day),"TherapeuticCategory: antipyretic, analgesic",0.037
NC(=O)c1ncn([C@@H]2O[C@H](CO)[C@@H](O)[C@H]2O)n1,maximum recommended daily dose (mmol/kg-bw/day),TherapeuticCategory: antiviral,0.819
Nc1nc(=S)c2[nH]cnc2[nH]1,maximum recommended daily dose (mmol/kg-bw/day),[11],0.0324
CN(C)[C@@H]1C(=O)C(C(N)=O)=C(O)[C@@]2(O)C(=O)C3=C(O)c4c(O)ccc(Cl)c4[C@@](C)(O)[C@H]3C[C@@H]12,maximum recommended daily dose (mmol/kg-bw/day),"TherapeuticCategory: antibacterial, antiamebic",0.0695
CNCCCC1c2ccccc2C=Cc2ccccc21,maximum recommended daily dose (mmol/kg-bw/day),[10],0.0038
COC12CC[C@@]3(C[C@@H]1[C@](C)(O)C(C)(C)C)[C@H]1Cc4ccc(O)c5c4[C@@]3(CCN1CC1CC1)[C@H]2O5,maximum recommended daily dose (mmol/kg-bw/day),TherapeuticCategory: narcotic analgesic,0.00114
CN[C@@H](C)[C@@H](O)c1ccccc1,maximum recommended daily dose (mmol/kg-bw/day),"TherapeuticCategory: l-form as bronchodilator, d-form as decongestant",0.0242
COc1ccc2c(c1)C(=O)N(CCc1ccc(S(=O)(=O)NC(=O)NC3CCCCC3)cc1)C(=O)C2(C)C,maximum recommended daily dose (mmol/kg-bw/day),[7],0.0019
CN1[C@@H]2CC[C@H]1CC(OC(=O)C(CO)c1ccccc1)C2 (stereo partly drawn),maximum recommended daily dose (mmol/kg-bw/day),"TherapeuticCategory: anticholinergic, mydriatic, antispasmodic",4.6e-06
C#C[C@]1(OC(C)=O)CC[C@H]2[C@@H]3CCC4=C[C@@H](OC(C)=O)CC[C@@H]4[C@H]3CC[C@@]21C,maximum recommended daily dose (mmol/kg-bw/day),TherapeuticCategory: progestogen,4.34e-05
O=[N+]([O-])c1cc(Cl)cc(-c2cc(Cl)cc([N+](=O)[O-])c2O)c1O,maximum recommended daily dose (mmol/kg-bw/day),TherapeuticCategory: none,0.0058
COc1ccc([C@@H]2Sc3ccccc3N(CCN(C)C)C(=O)[C@@H]2OC(C)=O)cc1,maximum recommended daily dose (mmol/kg-bw/day),TherapeuticCategory: antianginal,0.0193
CC(C)NCC1CCc2cc(CO)c([N+](=O)[O-])cc2N1 (stereo not drawn),maximum recommended daily dose (mmol/kg-bw/day),TherapeuticCategory: anthelmintic,0.215
CN1Cc2c(N)cccc2C(c2ccccc2)C1 (stereo not drawn),maximum recommended daily dose (mmol/kg-bw/day),[10],0.014
C[C@]1(O)CC[C@H]2[C@@H]3CCC4=CC(=O)CC[C@@H]4[C@H]3CC[C@@]21C,maximum recommended daily dose (mmol/kg-bw/day),TherapeuticCategory: androgen,0.00173
COc1ccc2c3c1O[C@H]1[C@@H](O)CC[C@H]4[C@@H](C2)N(C)CC[C@@]341,maximum recommended daily dose (mmol/kg-bw/day),[12],0.0106
CNS(=O)(=O)CCc1ccc2[nH]cc(C3CCN(C)CC3)c2c1,maximum recommended daily dose (mmol/kg-bw/day),"TherapeuticCategory: antimigraine, vasoconstrictor",0.000248
CC(C)CC(N(C)C)C1(c2ccc(Cl)cc2)CCC1 (stereo not drawn),maximum recommended daily dose (mmol/kg-bw/day),TherapeuticCategory: anorexic,0.000893
CN(C)CCC(c1ccccc1)c1ccccn1 (stereo not drawn),maximum recommended daily dose (mmol/kg-bw/day),[5],0.0026
CC1=C(/C=C/C(C)=C/C=C/C(C)=C/C=C/C=C(C)/C=C/C=C(C)/C=C/C2=C(C)C(=O)CCC2(C)C)C(C)(C)CCC1=O,maximum recommended daily dose (mmol/kg-bw/day),TherapeuticCategory: antioxidant,0.0443
CC1(O)CCC(C(C)(C)O)CC1 (stereo not drawn),maximum recommended daily dose (mmol/kg-bw/day),TherapeuticCategory: cis form hydrate as expectorant,0.116
COc1cc(NCc2ccc3nc(N)nc(N)c3c2C)cc(OC)c1OC,maximum recommended daily dose (mmol/kg-bw/day),[11],0.0033
Cc1ccccc1-n1c(C)nc2ccccc2c1=O,maximum recommended daily dose (mmol/kg-bw/day),"TherapeuticCategory: hypnotic, sedative",0.02
Cc1ncc(CO)c(CO)c1O,maximum recommended daily dose (mmol/kg-bw/day),TherapeuticCategory: enzyme cofactor vitamin,0.0394
O=C1O[C@H]([C@@H](O)CO)C(O)=C1O,maximum recommended daily dose (mmol/kg-bw/day),TherapeuticCategory: vitamin C deficiency,0.568
CC(=O)[C@H]1CC[C@H]2[C@@H]3CC[C@H]4C[C@H](O)CC[C@]4(C)[C@H]3C(=O)C[C@]12C,maximum recommended daily dose (mmol/kg-bw/day),TherapeuticCategory: anesthetic,0.00203
O=C(O)C1CCc2cc(C3CCCCC3)c(Cl)cc21 (stereo not drawn),maximum recommended daily dose (mmol/kg-bw/day),"TherapeuticCategory: anti inflammatory, antipyretic",0.00269
O=C(OC[C@H]1O[C@](O)(COC(=O)c2cccnc2)[C@@H](OC(=O)c2cccnc2)[C@@H]1OC(=O)c1cccnc1)c1cccnc1,maximum recommended daily dose (mmol/kg-bw/day),TherapeuticCategory: peripheral vasodilator,0.111
CC1(C)S[C@@H]2[C@H](NC(=O)[C@H](N)c3ccc(O)cc3)C(=O)N2[C@H]1C(=O)O,maximum recommended daily dose (mmol/kg-bw/day),[2],0.0596
CC(C)NCC(O)COc1ccc(CCOCC2CC2)cc1 (stereo not drawn),maximum recommended daily dose (mmol/kg-bw/day),"TherapeuticCategory: antihypertensive, antiglaucomic",0.00217
CC[C@@H](C(N)=O)N1CCCC1=O,maximum recommended daily dose (mmol/kg-bw/day),TherapeuticCategory: anticonvulsant,0.353
